Data reported in US9084806B2, “Hypoxia-responsive nanoparticle for therapy and imaging of hypoxia-involving diseases” (RESEARCH & BUSINESS FOUNDATION SUNGKYUNKWAN UNIVERSITY, priority 2012, dated 2015).
“Also recorded” adds a separate entry of the source.

Legend:
[1] = cited from earlier work
[2] = system: SCC7 cells; assay: In vitro cytotoxicity, MTT assay; format: cell-based; conditions: 24 h, various concentrations
Protocol: To evaluate in vitro cytotoxicity of HR-NPs, they were exposed to the SCC7 cells for 24 h at 37° C., after which the cell viability was measured using the MTT assay (FIG. 6a).
SCC7 (squamous carcinoma) cell lines, obtained from the American Type Culture Collection (Rockville, Md., USA), were cultured in RPMI 1640 medium (Gibco, Grand Island, N.Y., USA) containing 10% (v/v) fetal bovine serum and 1% (w/v) penicillin-streptomycin at 37° C. in a humidified 5% CO2-95% air atmosphere. The cells were seeded at a density of 1 104 cells/well in 96-well flat-bottomed plates. After one day of growth, the cells were washed twice with a PBS (pH 7.4) and incubated for 24 h with various concentrations of free DOX or DOX-HR-NPs (HR-NP8 and HR-NP11) under the hypoxic or normoxic condition. The cells were then washed twice with a PBS (pH 7.4) and the fresh culture medium was added. Twenty microliters of 3-(4,5-dimethylthiazol-2-yl)-2,5-diphenyltetrazolium bromide solution (5 mg/ml in PBS) were added to each well, and the cells were incubated for an additional 4 h at 37° C. Subsequently, the medium was removed, and the cells were dissolved in DMSO. The absorbance at 570 nm was measured using a microplate reader (BioTek, Seoul, Korea).

[3] = system: SCC7 cancer xenografts; assay: In vivo antitumor efficacy; design: species or system mice; conditions: DOX dose 5 mg/kg, once every three days
Protocol: To evaluate the anti-tumor efficacy of HR-NPs, SCC7 tumor bearing mice were prepared, as previously described. Mice were divided into three groups: (i) normal saline (ii) free DOX at 5 mg/kg, and (iii) DOX-HR-NP11 at 5 mg DOX/kg. When tumors reached 8 mm in diameter, each sample was injected once every three days. Tumor volumes were calculated as a×b^2/2, were a was the largest and b the smallest diameter. The statistical significance of differences (p<0.05) between groups tested was determined using one-way ANOVA test.

| SMILES | solubility in water [1] | cytotoxicity in the hypoxic condition compared with the normoxic condition [2] | change in tumor volume [3] |
| --- | --- | --- | --- |
| Nc1ncc[nH]1 [2-aminoimidazole] | readily dissolving in water; also recorded: highly water-soluble | – | – |
| O=[N+]([O-])c1ncc[nH]1 [2-nitroimidazole] | poorly soluble in water | – | – |
| COc1cccc2c1C(=O)c1c(O)c3c(c(O)c1C2=O)C[C@@](O)(C(=O)CO)C[C@@H]3O[C@H]1C[C@H](N)[C@H](O)[C@H](C)O1 [free DOX, doxorubicin] | – | comparable | considerable increase |
